Data from patent US5550138A, “Condensed thiadiazole derivative, method of its production, and use thereof” (Takeda Chemical Industries, Ltd., priority 1992, dated 1996).

Legend:
endothelin receptor = assay: Inhibition of endothelin-1 binding to endothelin receptor (125I-endothelin binding test, rabbit ventricular microsomal fraction); settings: 125I-endothelin-1 6×10^-11 M, 37° C., 90 minutes
Experimental: Inhibition of endothelin-1 binding to endothelin receptor
(a) Preparation of rabbit ventricular microsomal fraction
Rabbit ventricular microsomal fraction was prepared by the method described in Methods in Enzymology, 109, 513 with a slight modification. The cardiac ventricular muscle excised from a 2 to 2.5 kg rabbit was minced in solution A (20 mM NaHCO3, 0.1 mM phenylmethylsulfonyl fluoride (PMSF)) and then homogenized using a Polytron PT-20, and centrifuged at 1500×g for 15 minutes. The supernatant was centrifuged at 45000×g for 15 minutes. The resulting sediment was suspended in solution B (50 mM Tris-HCl pH 7.4, 0.1 mM PMSF) and then re-centrifuged at 45000×g for 15 minutes. The sediment was again suspended in solution B and then centrifuged at 45000×g for 15 minutes. The sediment was re-suspended in solution B, and the suspension was frozen with liquid nitrogen and stored at -80° C. This series of operations was performed at 4° C. Protein contents was determined by Lowry's method.
(b) ^125 I-endothelin binding test
To 250 μl of a reaction solution (50 mM Tris-HCl, pH 7.4, 0.2% BSA (bovine serum albumin)), supplemented with 6×10^-11 M ^125 I-endothelin-1 (Amersham Japan) 50 μl of the ventricular microsomal fraction (20 μg) and a sample were added, followed by incubation at 37° C. for 90 minutes. The reaction mixture was then filtered through a GF/B glass filter (Millipore Japan), and the filter was washed with a 40-fold (12 ml) of the reaction solution. The radioactivity of the ^125 I-endothelin on the glass filter was determined using a gamma-ray counter. Nonspecific binding was defined as the amount of ^125 I-endothelin in the presence of 4×10^-7 M unlabelled endothelin-1 and was less than 8% of total binding. The specific binding was calculated as total binding minus nonspecific binding. Non-specific binding accounted for not higher than 8% of the total binding. The inhibitory rate of the compound is expressed as the concentration (IC50 M) required to cause a 50% reduction in the specific binding.

swine coronary artery = assay: Inhibitory action on endothelin-1-induced constriction in swine coronary artery; format: cell-based; settings: Sus scrofa, relaxation of maximum constriction induced by endothelin-1 (3×10^-9 M); for inhibition at 100 µM: compound 1 × 10^-4 M; for inhibition at 10 µM: compound 1 × 10^-5 M; for inhibition at 30 µM: compound 3 × 10^-5 M
Experimental: Inhibitory action on endothelin-1-induced constriction in swine coronary artery
After fat tissue removal, the swine left coronary arterial anterior descending branch (LAD) was isolated and vascular rings were prepared. These arterial rings kept at 37° C., were suspended in a 20 ml organ chamber filled with Krebs solution being aerated with 95% O2 /5% CO2 gas. Two grams of the tension was applied. After equilibration for 1 hr, 60 mMKCl was applied to condition the coronary rings. The test compound was tested for inhibition of the constriction induced by endothelin-1 (3×10^-9 M) by adding the test compound when the maximum of endothelin-1 induced constriction was reached. Activity is expressed as percent relaxation of the maximum constriction induced by endothelin-1. The developed tension of rings was reached isometrically.

Cathepsin B = assay: Determination of cathepsin B inhibitory activity; format: biochemical; settings: substrate Z-Phe-Arg-NH-Mec; pH 5.5; 37° C., 20 minutes
Experimental: Determination of cathepsin B inhibitory activity
Cathepsin B (produced by Sigma) was diluted with 100 mM sodium acetate buffer (pH 5.5) to a concentration of 30 μg/ml. To 1 μl of this enzyme dilution, 46 μl of diluent, 2 μl of 0.1M DTT and 25 μl of activator/buffer (340 mM sodium acetate, 60 mM acetic acid, 4 mM EDTA disodium salt, pH 5.5) were added. To this mixture, a 1 μl sample, diluted to 10^-3 M with dimethylsulfoxide (DMSO), and 25 μl of 20 μM Z-Phe-Arg-NH-Mec (enzyme substrate solution) were added. After the mixture was incubated at 37° C. for 20 minutes, 100 μl of a stop solution (100 mM sodium monochloroacetate, 30 mM sodium acetate, pH 4.3) was added. The reaction was carried out on a 96-well fluoropiate (produced by Labo-Systems).
After the reaction was stopped, the absorbance of free aminomethylcoumarin was determined by excitation at 365 nm and emission at 450 nm, using Fluorescence Concentration Analyzer (produced by Baxter). One μl of sample-free DMSO was added for control, and the absorbance from reaction of this control was defined as 100% activity. For samples of under 10% residual activity, further dilutions were assayed for residual activity as described above to obtain the IC50 value.

bone resorption = assay: Inhibition of bone resorption (45Ca release from fetal rat forearm bones); format: cell-based, rat (Sprague-Dawley); settings: 48 h, 10 μg/ml compound, two days of culture, read-out: Inhibition of Bone Resorption [45Ca released (percent ratio to control)]
Experimental: Inhibition of bone resorption
The inhibitory effect of compound on bone resorption was measured by the method of Rais 3 [Journal of Clinical Investigation, 44, 103-116 (1965)]. Specifically, one Sprague-Dawley rat, at 19 days of gestation, was given 50 μCi of ^45 Ca (calcium isotope, in CaCl2 solution) by subcutaneous injection. On the following day, fetal rats were aseptically taken out, both forearm bones (radius and ulna) were cut out from the body of each fetus, and connective tissue and cartilages were removed to maximum possible extent, to yield prepare bone culture samples. Each bone fragment was incubated at 37° C. for 24 hours in 0.6 ml of BGJb medium (Fitton-Jackson modification, produced by GIBCO Laboratories, United States) containing 2 mg/ml bovine serum albumin, after which it was cultured in the same medium as above but containing a 10 μg/ml compound for two more days. ^45 Ca radioactivity in the medium and ^45 Ca radioactivity in the bone were then measured, and the percent ratio of ^45 Ca released from the bone to the medium was calculated using the following equation: [formula]
For control, bone fractions from fetuses of the same litter were cultured for two days in the absence of the test compound. The mean ± standard deviation for the values from five bone fragments in each group were calculated, and their percent ratios to the control were calculated.

mice = assay: Toxicity in mice (deaths); format: in vivo; settings: 300 mg/kg dose
Experimental: Although the daily dose varies depending on the condition and weight of the patient, kind of the compound, route of administration and other factors, it is administered parenterally, specifically subcutaneously, intravenously, intramuscularly or rectally at about 0.05 to 100 mg/kg/day, preferably 0.5 to 50 mg/kg/day as an endothelin receptor antagonist, about 0.1 to 100 mg/kg/day, preferably 1 to 50 mg/kg/day as a cathepsin B inhibitor and about 1 to 200 mg/kg/day, preferably 5 to 100 mg/kg/day as a bone resorption suppressor, respectively. For use as an oral agent, it is desirable to administer it at about 0.1 to 500 mg/kg/day, preferably 0.5 to 200 mg/kg/day as an endothelin receptor antagonist, about 1 to 500 mg/kg/day, preferably 10 to 300 mg/kg/day as a cathepsin B inhibitor and about 5 to 1000 mg/kg/day, preferably 10 to 300 mg/kg/day as a bone resorption suppressor, respectively.

Compound	IC50 (endothelin receptor)	activity at 10 µg/mL (bone resorption)	further results
Cc1ccc(S(=O)(=O)N=c2nc3cc4c(cn3s2)CCCC4)cc1 [Example 12]	6.5 µM	–	inhibition at 100 µM (swine coronary artery): 62%; inhibition at 10 µM (swine coronary artery): 14%
Cc1ccccc1S(=O)(=O)N=c1nc2cc3c(cn2s1)CCCC3 [Example 13]	5.9 µM	–	inhibition at 100 µM (swine coronary artery): 78%; inhibition at 10 µM (swine coronary artery): 56%
CCc1sc2nc(=NS(=O)(=O)c3ccc(C)cc3)sn2c1-c1ccc2c(c1)CCCC2 [Example 20, 5-ethyl-2-(4-methylphenyl)sulfonylimino-6-(5,6,7,8-tetrahydro-2-naphthyl)-2H-thiazolo[3,2-b][1,2,4]thiadiazole]	3 µM	–	inhibition at 100 µM (swine coronary artery): 68%; inhibition at 10 µM (swine coronary artery): 11%
CCCc1sc2nc(=NS(=O)(=O)c3ccc(C)cc3)sn2c1-c1ccc2c(c1)CCCC2 [Example 23]	2.5 µM	–	–
Cc1ccc(S(=O)(=O)N=c2nc3sc(C(C)C)c(-c4ccc5c(c4)CCCC5)n3s2)cc1 [Example 24]	2.5 µM	–	inhibition at 100 µM (swine coronary artery): 99%; inhibition at 10 µM (swine coronary artery): 37%
Cc1ccc(S(=O)(=O)N=c2nc3sc(CC4CCCCC4)c(-c4ccc5c(c4)CCCC5)n3s2)cc1 [Example 25]	–	72%	IC50 (Cathepsin B): 1.2 µM
CCNC(=O)Cc1sc2nc(=NS(=O)(=O)c3ccc(C)cc3)sn2c1-c1ccc2c(c1)CCCC2 [Example 31]	–	–	IC50 (Cathepsin B): 2.9 µM
Cc1ccc(NC(=O)Cc2sc3nc(=NS(=O)(=O)c4ccc(C)cc4)sn3c2-c2ccc3c(c2)CCCC3)cc1 [Example 34]	–	75%	IC50 (Cathepsin B): 9.3 µM
CCc1sc2nc(=NS(=O)(=O)c3ccc(C)cc3)sn2c1CC(=O)NCC1CCCCC1 [Example 65]	–	74%	–
CCS(=O)(=O)N=c1nc2sc(C)c(-c3ccc(C4CCCCC4)cc3)n2s1 [Example 82]	7.5 µM	–	–
Cc1sc2nc(=NS(=O)(=O)Cc3ccccc3)sn2c1-c1ccc(C2CCCCC2)cc1 [Example 83]	6 µM	–	deaths (mice): no deaths occurred
CCNC(=O)CCc1sc2nc(=NS(=O)(=O)c3ccc(C)cc3)sn2c1-c1ccc2c(c1)CCCC2 [Example 94]	–	76%	–
CCOC(=O)CCC(NC(=O)CCc1sc2nc(=NS(=O)(=O)c3ccc(C)cc3)sn2c1-c1ccc2c(c1)CCCC2)C(=O)OCC (stereo not shown) [Example 96]	–	81%	IC50 (Cathepsin B): 1.9 µM
CCOC(=O)CCCc1sc2nc(=NS(=O)(=O)c3ccc(C)cc3)sn2c1-c1ccc(C2CCCCC2)cc1 [Example 98]	–	87%	IC50 (Cathepsin B): 3.5 µM
CCc1sc2nc(=NS(=O)(=O)c3ccc(C)cc3)sn2c1-c1ccc(C2CCCCC2)cc1 [Example 99]	2.1 µM	–	–
CCCCOc1ccc(-c2c(CC)sc3nc(=NS(=O)(=O)c4ccc(C)cc4)sn23)cc1 [Example 104]	2.7 µM	–	–
Cc1sc2nc(=NS(=O)(=O)c3cccnc3)sn2c1-c1ccc(C2CCCCC2)cc1 [Example 108]	–	85%	IC50 (Cathepsin B): 1.1 µM
CCCS(=O)(=O)N=c1nc2sc(C)c(-c3ccc(C4CCCCC4)cc3)n2s1 [Example 111]	6.1 µM	75%	inhibition at 10 µM (swine coronary artery): 40%; inhibition at 30 µM (swine coronary artery): 78%
CCCCCCCCS(=O)(=O)N=c1nc2sc(C)c(-c3ccc(C4CCCCC4)cc3)n2s1 [Example 112]	5.2 µM	–	inhibition at 10 µM (swine coronary artery): 35%; inhibition at 30 µM (swine coronary artery): 83%
CCc1sc2nc(=NS(=O)(=O)CC(C)(C)CO)sn2c1-c1ccc(C2CCCCC2)cc1 [Example 115]	–	85%	–

Further lines, with some results ahead:

IC50 (endothelin receptor)	Compound	activity at 10 µg/mL (bone resorption)	further results
8.8 µM	O=S(=O)(N=c1nc2cc3c(cn2s1)CCCC3)c1ccccc1 [Example 14]	–	–
4 µM	CCOC(=O)Cc1sc2nc(=NS(=O)(=O)c3ccc(C)cc3)sn2c1-c1ccc2c(c1)CCCC2 [Example 26]	–	–
7.3 µM	Cc1ccccc1S(=O)(=O)N=c1nc2sc(C)c(-c3ccc(C4CCCCC4)cc3)n2s1 [Example 73]	–	–
4.2 µM	CCc1sc2nc(=NS(=O)(=O)c3ccc(C)cc3)sn2c1-c1cn(C)c2ccccc12 [Example 106]	–	–
3.8 µM	CCc1sc2nc(=NS(=O)(=O)c3ccc(F)cc3)sn2c1-c1ccc(C2CCCCC2)cc1 [Example 114]	–	inhibition at 10 µM (swine coronary artery): 44%; inhibition at 30 µM (swine coronary artery): 75%
